{"source": "paper PMC5360062", "about": "“Comparative insights into the saccharification potentials of a relatively unexplored but robust Penicillium funiculosum glycoside hydrolase 7 cellobiohydrolase” (Biotechnology for Biofuels, 2017)", "biological_target": "T1, PfCBH1 (GH7 cellobiohydrolase 1)", "T1 construct": "natively purified enzyme from the secretome", "test": "inhibition of pNPL hydrolysis by purified enzyme, Michaelis-Menten/Lineweaver-Burk; IC50 […]", "type": "biochemical, Talaromyces funiculosus (Penicillium funiculosum)", "data": [{"smiles": "OC[C@H]1O[C@@H](O[C@H]2[C@H](O)[C@@H](O)C(O)O[C@@H]2CO)[C@H](O)[C@@H](O)[C@@H]1O", "note": "(stereo partly shown) [G2, cellobiose]", "values": [{"measurement": "Ki", "result": "760 ± 54", "unit": "µM"}]}]}
